Earlier results in patent publication US8470831B2, “Acrylamido derivatives useful as inhibitors of the mitochondrial permeability transition” (Cogenia SRL, priority 2008, dated 2013).

Key:
[1] = test system: rat liver mitochondrial membranes
[2] = mouse, myocardial infarction and reperfusion injury
[3] = mdx and Scgd-/- mice
[4] = rat, transient focal cerebral ischemia
[5] = patients, one month treatment
[6] = rat, TNF-α-dependent acute inflammatory hepatitis

## COc1ccc(CN2CCN(CCCSc3cc(C(C)(C)C)c(O)c(C(C)(C)C)c3)CC2)c(OC)c1OC [Compound S-15176, N-[(3,5-di-tert-butyl-4-hydroxy-1-thiophenyl)]-3-propyl-N′-(2,3,4-trimethoxybenzyl)piperazine]
[1]
  mitochondrial membrane depolarization and respiration uncoupling: induces depolarization of the mitochondrial membrane and respiration uncoupling

## C/C=C/C[C@@H](C)[C@@H](O)[C@H]1C(=O)N[C@@H](CC)C(=O)N(C)[C@H](C)C(=O)N(CC)[C@@H](C(C)C)C(=O)N[C@@H](C(C)C)C(=O)N(C)[C@@H](CC(C)C)C(=O)N[C@@H](C)C(=O)N[C@H](C)C(=O)N(C)[C@@H](CC(C)C)C(=O)N(C)[C@@H](CC(C)C)C(=O)N(C)[C@@H](C(C)C)C(=O)N1C [Debio-025]
[2]
  infarct size: reduced infarct size
[3]
  mitochondrial swelling and necrotic disease: reduced mitochondrial swelling and necrotic disease

## C/C=C/C[C@@H](C)[C@@H](O)[C@H]1C(=O)N[C@@H](CC)C(=O)N(C)CC(=O)N(C)[C@@H]([C@@H](C)CC)C(=O)N[C@@H](C(C)C)C(=O)N(C)[C@@H](CC(C)C)C(=O)N[C@@H](C)C(=O)N[C@H](C)C(=O)N(C)[C@@H](CC(C)C)C(=O)N(C)[C@@H](CC(C)C)C(=O)N(C)[C@@H](C(C)C)C(=O)N1C [NIM811]
[4]
  protection: 40%

## Cyclosporin A
[5]
  mitochondrial function: amelioration of mitochondrial function
[6]
  liver damage: strongly reduces liver damage
